“And” between values parts separate entries of the source, which are not always exact repeats. Identical values can stand only once. Like-named read-outs stand apart in the source and are kept apart here.
Tests used:
[1] = Metabolic stability in mouse liver microsomes (MLM) with or without ANF; format: in vitro ADME; conditions: for half-life at 1 μM / microsomal CLint at 1 μM: CD-1, mouse, liver microsomes, 1 μM compound; for microsomal CLint at 1 μM: read-out: CLint(mic)
Experimental: Finally, we subjected the most promising derivatives to metabolic stability studies in mouse liver microsomes (MLMs), a validated model for understanding phase I metabolism of drugs (Table 1). To investigate whether the analogues would be susceptible to CYPs metabolism, we repeated these tests in the presence of 3 μM α-naphthoflavone (ANF). ANF is a well-known inhibitor of CYP1A enzymes, which is responsible for the CYP oxidative metabolism of naphthalene ring in ezutromid. […] These findings support the strategy that BCHep substitution mitigates the metabolic liabilities associated with ezutromid, by both preserving metabolic stability and avoiding CYP1A-mediated metabolism. [table] page 148: Fig.S178. […] Data have been obtained by RT-qPCR, and analysed using the 2-∆∆Ct method. Values obtained have been normalized to control (DMSO 1%), and presented as Mean + SEM (n=4). Statistical analysis was performed using the Ordinary One-way ANOVA followed by Dunnett’s multiple comparisons test against Vehicle Control: **: p < 0.005; ****: p < 0.0001 (grey). Metabolic stability Metabolic stability of compounds was assessed in Mouse Liver Microsomes (MLM) by WuxiAppTech (Shangai, China). Briefly, ACN solutions of test compounds ( 50a-c, i.a concentration 1μM) were dispensed in duplicate in a 96-well plate using an Apricot automation workstation. A solution of MLM (CD-1 Mouse, RILD, Cat. number LM-XS-02M) in PBS, with or without ANF, was added to each compound and plates were incubated at 37°C for 10 minutes. Reactions were then initiated by adding NADPH (i.a. 1mM, 0.5mM MgCl2) an d […] performed by adding stop solution before activating the reaction). NADPH -independent metabolism was assessed for each condition by replacing NADPH solution with PBS b uffer. Phenacetine, diclofenac and propafenone were used as controls. After proper incubation time, reaction was stopped by addition of ice -cold ACN and the plates were sealed, shaken and centrifuged at 1800 x g and 4°C for 20 minutes. The supernatant was then subjected to LC/MS-MS analysis for residual drug quantitation using 250 nM tolbutamide and 250 nM labetalol as internal standards. Half-life (t1/2) and CLint (Intrinsic clearance) were calculated using standard pharmacokinetic calculations based on the decay of drug concentration over time. […] The test compound 50b at 10 µM was incubated with liver microsomes in the presence of NADPH at […] The positive control, 7-ethoxycoumarin (7-EC) at 10 µM, was run concurrently to 147 (1 picture or pasted object on this page, not shown here)

[2] = biological target: T1, aryl hydrocarbon receptor (AhR) (Homo sapiens, UniProt P35869); assay: AhR antagonism: CYP1A1 mRNA levels in HepG2 cells by RT-qPCR; format: cell-based; conditions: HepG2, 4 h incubation, 2^-ΔΔCt, normalized to DMSO control
T1 construct: Human hepatocellular carcinoma (HepG2) cell lines were acquired from Abcam; host or cells: HepG2 (human hepatocellular carcinoma)
T1 sequence (P35869 11-848): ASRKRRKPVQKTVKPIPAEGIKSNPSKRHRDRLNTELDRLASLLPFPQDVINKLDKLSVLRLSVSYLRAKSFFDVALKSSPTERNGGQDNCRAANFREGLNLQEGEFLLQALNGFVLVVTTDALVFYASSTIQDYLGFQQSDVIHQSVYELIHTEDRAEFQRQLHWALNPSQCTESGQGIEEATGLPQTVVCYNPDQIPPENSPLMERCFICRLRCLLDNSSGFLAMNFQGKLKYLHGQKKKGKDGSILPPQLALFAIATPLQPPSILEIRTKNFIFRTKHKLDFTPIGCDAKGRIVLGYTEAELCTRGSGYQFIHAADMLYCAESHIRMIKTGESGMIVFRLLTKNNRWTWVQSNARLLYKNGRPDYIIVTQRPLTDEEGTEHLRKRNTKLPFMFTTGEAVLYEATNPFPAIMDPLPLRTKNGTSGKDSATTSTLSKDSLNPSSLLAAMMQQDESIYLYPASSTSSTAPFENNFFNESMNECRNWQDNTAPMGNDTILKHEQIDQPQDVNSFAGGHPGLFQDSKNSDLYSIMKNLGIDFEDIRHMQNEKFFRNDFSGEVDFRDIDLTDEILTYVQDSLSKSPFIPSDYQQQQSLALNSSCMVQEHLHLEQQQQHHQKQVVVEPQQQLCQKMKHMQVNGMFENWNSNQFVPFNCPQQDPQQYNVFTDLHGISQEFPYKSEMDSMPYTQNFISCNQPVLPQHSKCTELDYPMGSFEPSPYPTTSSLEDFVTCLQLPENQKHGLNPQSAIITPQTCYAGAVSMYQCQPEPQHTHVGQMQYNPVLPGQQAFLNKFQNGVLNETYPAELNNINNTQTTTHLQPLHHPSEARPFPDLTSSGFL
Text: To this aim, we decided to measure the activity of ezutromid and the analogues against ezutromid's primary target, which has recently been identified as the aryl hydrocarbon receptor (AhR)[40]. This nuclear transcription factor plays a pivotal role in the metabolism of exogenous small molecules by targeting nuclear DNA to upregulate the expression of several isoforms of CYP enzymes responsible for the phase I metabolism of drugs, such as CYP1A isoforms (Fig. 5a). Therefore, AhR inhibition can be monitored by measuring the relative expression of these genes, with lower CYP1A1 mRNA levels being proportional to AhR antagonism.  Fig. 5 AhR antagonism and biological evaluation of BCHep analogues. a, A schematic representation of how ezutromid antagonizes AhR preventing its translocation into the nuclei and its subsequent upregulation of CYP1A1 enzyme. The inhibition of AhR can therefore be evaluated as a decrease in CYP1A1 expression. b, The evaluation of 50a-c as AhR antagonists compared with ezutromid. Data have been obtained by quantitative RT-qPCR and analysed using the 2^-ΔΔCt method. Values obtained have been normalized to control (DMSO 1%) and presented as mean + s.e.m. The IC50 values were determined from biological triplicates, except for compounds 50c and ezutromid, which were measured from duplicate experimental replicates.

[3] = Kinetic solubility assay in phosphate buffer; format: physicochemical; conditions: aqueous buffer, kinetic from dmso stock, 50 mM PB (pH 7.4), room temperature
Experimental: A 50 mM phosphate buffer (pH 7.4) was prepared by mixing 50 mM Na₂HPO₄ (3.549 g in 500 mL H₂O, pH ≈ 9.4) and 50 mM NaH ₂PO₄ (3.000 g in 500 mL H₂O, pH ≈ 4.5). To obtain the working buffer, 15 mL of Na₂HPO₄ solution was transferred into a 50 mL tube and adjusted to pH 7.4 ± 0.05 with 50 mM NaH₂PO₄. For solubility determination, 10 µL of compound stock solution was added to each well of a 96 -well plate, followed by 490 µL of buffer. Samples were vortexed for 2 min, shaken at 70 x g for 24 h at room temperature, and then centrifuged at 25 °C for 10 min (1800 x g). Supernatants were filtered through MultiScreen® Solvinert plates (Millipore/Merck) by centrifugation (≥ 5 min) and collected into a fresh 96 -well plate. Filtrate concentrations were quantified by LC-UV using an ACQUITY UPLC BEH C18 (1.7 µm, 50 mm) column with Mobile Phase A (0.1% TFA, 5 mM NH ₄OAc in H₂O/ACN 95:5 v/v) and Mobile Phase B (0.1% TFA, 5 mM NH ₄OAc in H₂O/ACN 5:95 v/v). […]
Compound ID Batch Media Kinetic Solubility Kinetic Solubility

utrophin = system: utrophin; parameters: method as in doi:10.1080/21678707.2018.1438261; conditions: patients with DMD, cited from earlier work
[4] = MetID of 50b in liver microsomes (LC-UV-MS); format: in vitro ADME, human
Experimental: Fig.S178. Evaluation of 50a-c as AhR antagonists compared to Ezutromid. Data have been obtained by RT-qPCR, and analysed using the 2-∆∆Ct method. Values obtained have been normalized to control (DMSO 1%), and presented as Mean + SEM (n=4). Statistical analysis was performed using the Ordinary One-way ANOVA followed by Dunnett’s multiple comparisons test against Vehicle Control: **: p < 0.005; ****: p < 0.0001 (grey).
Metabolic stability of compounds was assessed in Mouse Liver Microsomes (MLM) by WuxiAppTech (Shangai, China). Briefly, ACN solutions of test compounds ( 50a-c, i.a concentration 1μM) were dispensed in duplicate in a 96-well plate using an Apricot automation workstation. […] NADPH -independent metabolism was assessed for each condition by replacing NADPH solution with PBS b uffer. […]
After proper incubation time, reaction was stopped by addition of ice -cold ACN and the plates were sealed, shaken and centrifuged at 1800 x g and 4°C for 20 minutes. The supernatant was then subjected to LC/MS-MS analysis for residual drug quantitation using 250 nM tolbutamide and 250 nM labetalol as internal standards. Half-life (t1/2) and CLint (Intrinsic clearance) were calculated using standard pharmacokinetic calculations based on the decay of drug concentration over time. […]
incubation system was reliable for metabolic study. After incubation, the samples were analyzed by LC - UV-MS. […]

[5] = with α-naphthoflavone (ANF, CYP1A inhibitor) 3 μM, with 3 μM ANF (CYP1A inhibitor)
[6] = with α-naphthoflavone (ANF, CYP1A inhibitor) 3 μM, with 3 μM ANF

increase in metabolic half-life compared with ezutromid [1]	half-life at 1 μM ([1]; without ANF) [min]	microsomal CLint at 1 μM ([1]; without ANF) [µL/min/mg]	half-life at 1 μM [1, 5] [min]	microsomal CLint at 1 μM [1, 6] [µL/min/mg]	IC50 [2] [µM]	solubility kinetic at 24 h [3]	half-life compared with ezutromid [1]	Relative Abundance (UV Peak Area %Total) ([4]; 50b at 10 µM, human liver microsomes, NADPH, 37°C, 60 min) [%]	predominant biotransformation ([4]; metabolic profiling of 50b)	SMILES	primary or secondary end points (utrophin; after 48 weeks of treatment)	levels of utrophin (utrophin; repeated dosing, 24-week data)	muscle fibre damage (utrophin; repeated dosing, 24-week data)
~ 2 fold	94 ± 0.2	14.7 ± 0.1	108 ± 11	12.8 ± 1.4	19 ± 18	< 1.56 µM and < 0.552 µg/mL				CCS(=O)(=O)c1ccc2oc(C34Cc5ccccc5C(C3)C4)nc2c1 [50a]			
	60 ± 5	23.3 ± 2	89 ± 6	15.8 ± 1.1	0.27	< 1.56 µM and < 0.527 µg/mL				CCS(=O)(=O)c1ccc2oc(-c3ccc4ccccc4c3)nc2c1 [Ezutromid, ezutromid, reference compound]	failed to meet	increased	statistically significant reduction
	40 ± 7	35.6 ± 7	42 ± 4	33.6 ± 2.7	2.12 ± 0.3	< 1.56 µM and < 0.552 µg/mL	slight decrease	66.02	mono-oxygenation of the BCHep moiety	CCS(=O)(=O)c1ccc2oc(-c3ccc4c(c3)CC3CC4C3)nc2c1 [50b]			
	48 ± 8	29.9 ± 4.9	56 ± 10	25.7 ± 4.6	13.1 ± 2					CCS(=O)(=O)c1ccc2oc(-c3ccc4c(c3)C3CC(C4)C3)nc2c1 [50c]			
